Assay results taken from patent US12454530B2, “Amido cyclohexane acid derivatives as LPA receptor inhibitors” (CHIESI FARMACEUTICI S.P.A., priority 2020, dated 2025).

Key:
BSEP = BSEP (Homo sapiens (Human), UniProt O95342); experiment: BSEP inhibition: biliary clearance of Taurocolic Acid in sandwich-cultured human hepatocytes; format: in vitro ADME; settings: sandwich-cultured cryopreserved human hepatocytes, probe Taurocolic Acid (TCA); 50 μM test compound, 10 μM TCA, human hepatocytes sandwich configuration
Protocol: BSEP inhibition was evaluated using human hepatocytes cultured between two layer of collagen (sandwich configuration). In this culture condition, hepatocytes express relevant transporters including BSEP and retain the bile canalicular structure. An inhibition of the biliary clearance of Taurocolic Acid (TCA), a known BSEP substrate, was used to assess BSEP interaction.
BSEP inhibition was evaluated using cryopreserved human hepatocytes (Plateable Cryopreserved Human Hepatocytes, BIOIVT) cultured for 5 day between two layer of collagen (sandwich configuration). In this culture condition, hepatocytes express relevant transporters including BSEP and retain the bile canalicular structure.
On day 5 of culture, hepatic cells are ready for the assay and the biliary clearance of Taurocolic Acid (TCA), a known BSEP substrate, can be estimated in presence and in absence of compound of interest.
The sample solution was prepared dissolving test compound and TCA in DMSO and then diluted in the Assay Buffer: Hank's Balance Salt Solution (HBSS+) warmed at 37° C. before use, to give the 10 μM TCA working solution with and without 50 μM of test compound. Hepatocytes were incubated for 10 minutes with these working solutions allowing TCA to be excreted into bile. At the end of incubation, the working solution was aspirated, and the content of the bile was collected through the addition of HBSS Modified without Ca2+/Mg2+(HBSS−). The presence of Ca2+ in the buffer is required to maintain the integrity of the tight junctions, the diffusional barrier between the canalicular lumen and extracellular space. Instead, incubation of cells in Ca2+-free buffer disrupts the tight junctions and opens the bile canalicular structures, allowing the bile content to be released and collect for HPLC-MS/MS analysis.
The in vitro biliary clearance of TCA incubated with and without test compounds is calculated according to the following formula:
where • Acc. Bile=(TCA amount in HBSS (−) buffer samples (pmol/mg protein)*Volume of each samples (mL))/Protein content per well (mg) • AUC=Incubation time (min)*T0 Concentration. T0 concentration is the initial TCA concentration in the medium.
The inhibition of BSEP was calculated as percentage of inhibition of TCA biliary clearance in presence of compound of interest, according to the following formula: BSEP inhibition %=100−(TCA ClBil with test compound*100)
TCA ClBil without test compound.

[1] = Permeability on Caco-2 cells monolayers; format: in vitro ADME; settings: human, with Elacridar 10 µM (PgP inhibitor), Papp A>B with PgP inhibitor Elacridar, 10 μM compound, read-out: Passive Permeability
Protocol: Even more advantageously, the compounds of formula (I) of the present invention are also endowed with a good permeability profile that, in its turn, can ensure a suitable bioavailability for an oral administration. The permeability was assessed in human Caco 2 cell line, an in vitro model that mimic human gastrointestinal barrier and so useful to predic oral absorption.
The permeability of the compounds of the present invention was evaluated performing the assay on Caco-2 cells monolayers (human colon adenocarcinoma immortalized cell) by measuring the transport of compound (absorption and secretion) in both directions: apical to basolateral direction (A>B) and basolateral to apical (B>A) with and without PgP inhibitor (Elacridar).
The cells, purched from ReadyCell in 96 well format (Cod. KRECE-CCR50), were cultured by the supplier for 21 day on transwell supports in DMEM 1 g/L glucose culture medium supplemented with Fetal Bovin Sierum (10%), Glutamine 200 mM (1%) and Penicillin 10000 U/ml-10 mg/ml Streptomycin (1%).
On day 21 of colture, cell monolayers integrity was verified by measuring the trans-epithelial electric resistance (TEER) using the EVOM equipment (Endohm, WPI, Germany) and studying the apparent permeability (Papp) of reference compounds (Sulpiride and Metoprolol). Furthermore, as a control, the Talinolol 10 uM (Pgp efflux substrate) with and without Elacridar in both directions was used.
The sample solution was prepared dissolving test compound in DMSO at the concentration of 10 mM and then diluted in the Assay Buffer (Hank's Balance Salt Solution) warmed at 37° C. before use, to give the 10 μM Compound working solution with and without 10 μM Elacridar. These working solutions were added to donor compartment (apical for A>B direction and basolateral for B>A direction) and Assay Buffer (Hank's Balance Salt Solution) to the receiver compartment (basolateral for A>B direction and apical for B>A direction). The plate was incubated at 37° C. for 120 min, all incubation were conducted in triplicates. At the end of incubation, samples from donor and receiver compartments were collected for HPLC-MS/MS analyses.
The permeability coefficients (Papp) in both directions: apical to basolateral (A>B) and basolateral to apical (B>A) with and without PgP inhibitor (Elacridar) was calculated in nm/sec, using the following equation:
[formula] • where: • Cr=measured concentration in the receiver well at the time t (expressed as IS ratio) • Vr=volume of the receiver well (ml) • t=time (sec) • A=membrane surface area (cm^2) • C0=initial donor concentration • Passive Papp is considered Papp A>B with PgP inhibitor Elacridar.

[2] = target: human recombinant LPA1 expressed in CHO cells (Homo sapiens (Human), UniProt Q92633); experiment: LPA1 antagonist FLIPR calcium assay in CHO-hLPA1 cells; format: cell-based; settings: range of activity; CHO-hLPA1, LPA EC80, Ca2+ mobilization; read-out: LPA1 IC50
Protocol: The effectiveness of compounds of the present invention as LPA1 antagonists can be determined at the human recombinant LPA1 expressed in CHO cells, using a FLIPR assay in 384 well format.
CHO-hLPA1 cell lines are cultured in a humidified incubator at 5% CO2 in DMEM/F-12 (1:1) MIXTURE with 2 mM Glutamax, supplemented with 10% of Foetal Bovine Serum, 1 mM Sodium Pyruvate, 11 mM Hepes and 1× Penicillin/Streptomycin. […] Serial dilutions (1:3 or 1:4, 11 points CRC) of compounds are performed in 100% DMSO at 200× the final concentration. […] The final concentration of DMSO in the assay will be 0.5% in each well. Medium is removed by aspiration and cells are then incubated with 30 μl of a loading solution containing 5 μM of the cytoplasmic Ca2+ indicator Cal-520 AM in Assay Buffer containing 2.5 mM probenecid for 30 min at 37° C. incubator (cell loading). The loaded cell plates are transferred into the FLIPR instrument and calcium responses are monitored during the on-line addition protocols. For testing of compounds, after the cell loading, 10 μl/well of 4× antagonists' solution was added onto the cells. After 30 min pre-incubation (at 37° C.), 10 μl/well of 5× concentrated LPA EC80 was added and Ca2+ mobilization responses was followed during the on-line addition protocol. Intracellular peak fluorescence values subtracted by baseline fluorescence are exported and analysed to determine IC50 values, respectively. The calcium response is expressed as percentage of the maximal inhibition of the EC80 agonist response.
The raw data (peak height expressed as relative fluorescence units) are normalized and transformed into “percent of inhibition”. Curve fitting and pIC50 (−LogIC50) estimations are carried out using a four-parameter logistic model using XLfit Software.

human recombinant LPA1 expressed in CHO cells, sequence (Q92633 whole entry): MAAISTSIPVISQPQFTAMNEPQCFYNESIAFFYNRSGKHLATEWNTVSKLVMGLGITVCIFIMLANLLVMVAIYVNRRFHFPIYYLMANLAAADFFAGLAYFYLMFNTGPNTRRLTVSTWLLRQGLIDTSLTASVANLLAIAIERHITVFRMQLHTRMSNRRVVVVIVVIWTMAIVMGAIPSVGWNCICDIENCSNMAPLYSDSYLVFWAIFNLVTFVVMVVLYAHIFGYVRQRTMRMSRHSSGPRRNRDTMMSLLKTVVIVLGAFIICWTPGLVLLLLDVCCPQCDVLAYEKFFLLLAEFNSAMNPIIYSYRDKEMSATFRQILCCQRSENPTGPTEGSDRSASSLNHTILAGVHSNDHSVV
BSEP, sequence (O95342 whole entry): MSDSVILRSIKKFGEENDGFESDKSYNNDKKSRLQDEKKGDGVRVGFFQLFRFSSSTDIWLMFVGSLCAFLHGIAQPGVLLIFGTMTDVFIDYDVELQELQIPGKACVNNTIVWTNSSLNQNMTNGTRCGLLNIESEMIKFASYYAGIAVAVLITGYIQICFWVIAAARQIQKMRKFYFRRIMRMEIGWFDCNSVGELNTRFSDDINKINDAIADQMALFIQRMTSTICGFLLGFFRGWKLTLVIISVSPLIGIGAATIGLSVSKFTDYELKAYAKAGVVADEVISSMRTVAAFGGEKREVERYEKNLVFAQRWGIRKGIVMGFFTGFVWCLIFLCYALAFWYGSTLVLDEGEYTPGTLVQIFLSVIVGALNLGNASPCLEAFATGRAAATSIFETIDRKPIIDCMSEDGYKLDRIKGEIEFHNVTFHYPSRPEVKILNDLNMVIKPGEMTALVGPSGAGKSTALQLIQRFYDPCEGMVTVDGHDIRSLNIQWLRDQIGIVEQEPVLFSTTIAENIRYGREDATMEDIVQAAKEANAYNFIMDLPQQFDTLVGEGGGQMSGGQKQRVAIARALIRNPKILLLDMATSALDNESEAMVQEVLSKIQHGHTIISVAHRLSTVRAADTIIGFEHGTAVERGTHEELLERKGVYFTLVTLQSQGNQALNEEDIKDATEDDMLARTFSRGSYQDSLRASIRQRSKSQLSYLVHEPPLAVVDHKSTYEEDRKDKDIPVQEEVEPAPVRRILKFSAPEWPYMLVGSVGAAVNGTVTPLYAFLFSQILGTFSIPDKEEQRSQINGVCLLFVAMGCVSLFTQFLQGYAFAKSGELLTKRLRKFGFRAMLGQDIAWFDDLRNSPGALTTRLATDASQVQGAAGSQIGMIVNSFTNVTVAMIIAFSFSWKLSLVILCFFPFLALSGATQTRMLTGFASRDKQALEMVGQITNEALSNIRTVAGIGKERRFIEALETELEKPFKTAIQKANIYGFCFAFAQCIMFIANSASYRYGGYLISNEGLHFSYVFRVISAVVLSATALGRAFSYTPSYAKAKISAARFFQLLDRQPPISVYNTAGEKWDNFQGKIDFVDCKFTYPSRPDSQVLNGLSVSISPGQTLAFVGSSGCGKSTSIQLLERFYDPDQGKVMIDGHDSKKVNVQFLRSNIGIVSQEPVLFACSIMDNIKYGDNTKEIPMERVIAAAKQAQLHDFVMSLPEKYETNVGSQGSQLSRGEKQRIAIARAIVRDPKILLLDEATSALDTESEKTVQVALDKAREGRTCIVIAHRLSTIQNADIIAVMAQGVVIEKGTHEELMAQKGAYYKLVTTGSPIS

Structure (SMILES): Cc1nc(-c2onc(C)c2NC(=O)O[C@H](C)c2ccccc2Cl)ccc1NC(=O)C1CCCCC1C(=O)O (single isomer, unassigned) [Example 13]
- inhibition at 10 min, 50 μM (BSEP): ≤ 50%
- Papp at 120 min, 10 µM [1]: ≥ 1.5 ×10⁻⁶ cm/s

Structure (SMILES): Cc1nc(-c2cnn(C)c2NC(=O)O[C@H](C)c2ccccc2Cl)ccc1NC(=O)[C@H]1CCCC[C@@H]1C(=O)O (stereo in doubt) [Example 2, (1S,2S)-2-((6-(5-((((R)-1-(2-chlorophenyl)ethoxy)carbony1)amino)-1-methyl-1H-pyrazol-4-yl)-2-methylpyridin-3-y1)carbamoyl)cyclohexane-1-carboxylic acid]
- inhibition at 10 min, 50 μM (BSEP): ≤ 50%
- Papp at 120 min, 10 µM [1]: ≥ 1.5 ×10⁻⁶ cm/s

Structure (SMILES): COc1ccccc1[C@@H](C)OC(=O)Nc1c(C)noc1-c1ccc(NC(=O)[C@H]2CCCC[C@@H]2C(=O)O)cn1 [Example 37, (1S,2S)-2-((6-(4-((((R)-1-(2-methoxyphenyl)ethoxy)carbonyl)amino)-3-methylisoxazol-5-yl)pyridin-3-yl)carbamoyl)cyclohexane-1-carboxylic acid]
- inhibition at 10 min, 50 μM (BSEP): ≤ 50%
- IC50 [2]: 50 to 250 nM

Structure (SMILES): Cc1noc(-c2ccc(NC(=O)[C@H]3CCCC[C@@H]3C(=O)O)cn2)c1NC(=O)O[C@H](C)c1ccccc1 [Example 41, (1S,2S)-2-((6-(3-methyl-4-((((R)-1-phenylethoxy)carbonyl)amino)isoxazol-5-yl)pyridin-3-yl)carbamoyl)cyclohexane-1-carboxylic acid]
- inhibition at 10 min, 50 μM (BSEP): ≤ 50%
- IC50 [2]: < 50 nM

Structure (SMILES): Cc1nc(-c2snc(C)c2NC(=O)O[C@H](C)c2ccccc2Cl)ccc1NC(=O)[C@H]1CCCC[C@@H]1C(=O)O [Example 42, (1S,2S)-2-((6-(4-((((R)-1-(2-chlorophenyl)ethoxy)carbonyl)amino)-3-methylisothiazol-5-yl)-2-methylpyridin-3-yl)carbamoyl)cyclohexane-1-carboxylic acid]
- Papp at 120 min, 10 µM [1]: ≥ 1.5 ×10⁻⁶ cm/s

Structure (SMILES): Cc1nc(-c2cnn(C)c2NC(=O)O[C@H](C)c2ccccc2)ccc1NC(=O)[C@H]1CCCC[C@@H]1C(=O)O [Example 43, (1S,2S)-2-((2-methyl-6-(1-methyl-5-((((R)-1-phenylethoxy)carbonyl)amino)-1H-pyrazol-4-yl)pyridin-3-yl)carbamoyl)cyclohexane-1-carboxylic acid]
- inhibition at 10 min, 50 μM (BSEP): ≤ 50%
- IC50 [2]: 50 to 250 nM

Structure (SMILES): Cc1nc(-c2nnn(C)c2NC(=O)O[C@H](C)c2ccccc2)ccc1NC(=O)[C@H]1CCCC[C@@H]1C(=O)O [Example 44, (1S,2S)-2-((2-methyl-6-(1-methyl-5-((((R)-1-phenylethoxy)carbonyl)amino)-1H-1,2,3-triazol-4-yl)pyridin-3-yl)carbamoyl)cyclohexane-1-carboxylic acid]
- inhibition at 10 min, 50 μM (BSEP): ≤ 50%
- IC50 [2]: < 50 nM

Structure (SMILES): Cc1nc(-c2nnn(C)c2NC(=O)O[C@H](C)c2ccccc2C(F)(F)F)ccc1NC(=O)[C@H]1CCCC[C@@H]1C(=O)O [Example 45, (1S,2S)-2-((2-methyl-6-(1-methyl-5-((((R)-1-(2-(trifluoromethyl)phenyl)ethoxy)carbonyl)amino)-1H-1,2,3-triazol-4-yl)pyridin-3-yl)carbamoyl)cyclohexane-1-carboxylic acid]
- inhibition at 10 min, 50 μM (BSEP): ≤ 50%
- IC50 [2]: 50 to 250 nM

Structure (SMILES): Cc1nc(-c2nnn(C)c2NC(=O)O[C@H](C)c2ccccc2F)ccc1NC(=O)[C@H]1CCCC[C@@H]1C(=O)O [Example 47, (1S,2S)-2-((6-(5-((((R)-1-(2-fluorophenyl)ethoxy)carbonyl)amino)-1-methyl-1H-1,2,3-triazol-4-yl)-2-methylpyridin-3-yl)carbamoyl)cyclohexane-1-carboxylic acid]
- inhibition at 10 min, 50 μM (BSEP): ≤ 50%
- IC50 [2]: < 50 nM

Structure (SMILES): CCn1nnc(-c2ccc(NC(=O)[C@H]3CCCC[C@@H]3C(=O)O)c(C)n2)c1NC(=O)O[C@H](C)c1ccccc1Cl [Example 48, (1S,2S)-2-((6-(5-((((R)-1-(2-chlorophenyl)ethoxy)carbonyl)amino)-1-ethyl-1H-1,2,3-triazol-4-yl)-2-methylpyridin-3-yl)carbamoyl)cyclohexane-1-carboxylic acid]
- inhibition at 10 min, 50 μM (BSEP): ≤ 50%
- IC50 [2]: < 50 nM

Structure (SMILES): Cc1nc(-c2cnn(C)c2NC(=O)O[C@H](C)C2CCCC2)ccc1NC(=O)[C@H]1CCCC[C@@H]1C(=O)O [Example 51, (1S,2S)-2-((6-(5-((((R)-1-cyclopentylethoxy)carbonyl)amino)-1-methyl-1H-pyrazol-4-yl)-2-methylpyridin-3-yl)carbamoyl)cyclohexane-1-carboxylic acid]
- inhibition at 10 min, 50 μM (BSEP): ≤ 50%
- IC50 [2]: 250 to 600 nM

Structure (SMILES): CCC[C@@H](C)OC(=O)Nc1c(-c2ccc(NC(=O)[C@H]3CCCC[C@@H]3C(=O)O)c(C)n2)nnn1C [Example 52, (1S,2S)-2-((2-methyl-6-(1-methyl-5-(((((R)-pentan-2-yl)oxy)carbonyl)amino)-1H-1,2,3-triazol-4-yl)pyridin-3-yl)carbamoyl)cyclohexane-1-carboxylic acid]
- inhibition at 10 min, 50 μM (BSEP): ≤ 50%
- IC50 [2]: 50 to 250 nM

Structure (SMILES): C[C@@H](OC(=O)Nc1c(-c2ccc(NC(=O)[C@H]3CCCC[C@@H]3C(=O)O)c(F)n2)nnn1C)c1ccccc1Cl [Example 53, (1S,2S)-2-((6-(5-((((R)-1-(2-chlorophenyl)ethoxy)carbonyl)amino)-1-methyl-1H-1,2,3-triazol-4-yl)-2-fluoropyridin-3-yl)carbamoyl)cyclohexane-1-carboxylic acid]
- inhibition at 10 min, 50 μM (BSEP): ≤ 50%
- IC50 [2]: < 50 nM
